Experimental data taken from patent US11834432B2, “Substituted amino six-membered nitric heterocyclic ring compound and preparation and use thereof” (SHANGHAI INSTITUTE OF MATERIA MEDICA, CHINESE ACADEMY OF …, priority 2016, dated 2023).
pIC50: −log10 of the molar value.

Legend:
[1] = target: FGFR1 kinase domain recombinant protein (Homo sapiens (Human), UniProt P11362); assay: Inhibition of receptor tyrosine kinase FGFR1 activity (ELISA); assay type: biochemical
Description: 1. Preliminary Evaluation Inhibition on Receptor Tyrosine Kinase FGFR1 Activity of Compound
1. […] The liquid from the well was discarded. The plate was washed for three times with T-PBS (0.1% Tween-20 in potassium-free PBS, 200 μL/well), 5 minutes for each time. The elisa plate was dried in 37° C. dryer for 1-2 hours.
2. 49 μL of ATP solution diluted in reaction buffer (50 mM HEPES pH 7.4, 50 mM MgCl2, 0.5 mM MnCl2, 0.2 mM Na3VO4, 1 mM DTT) was added into each well, and 1 μL of the test compound was added to each well, and then 50 μL of FGFR1 kinase domain recombinant protein diluted in reaction buffer was added to initiate the reaction, and two control wells without ATP were required for each experiment. The reaction was performed on a Shaker (100 rpm) at 37° C. for 1 hour. The liquid from the well was discarded, and the plate was washed with T-PBS for three times.
3. The antibody PY99 dilution (antibody diluted 1:500 in T-PBS with BSA 5 mg/mL) was added at 100 μL/well, and shaken for 0.5 hours on a 37° C. shaker. The liquid from the well was discarded, and the plate was washed with T-PBS for three times.
4. The horseradish peroxidase-labeled goat anti-mouse second antibody dilution (antibody diluted 1:2000 in T-PBS with BSA 5 mg/mL) was added at 100 μL/well, and shaken for 0.5 hours on a 37° C. shaker. The liquid from the well was discarded, and the plate was washed with T-PBS for three times.
5. 2 mg/mL OPD coloration solution (diluted with 0.1 M citric acid-sodium citrate buffer containing 0.03% H2O2 (pH=5.4)) was added at 100 μL/well, and reacted for 1-10 minutes at 25° C. in darkness.
6. The reaction was quenched with 50 μL/well of 2M H2SO4, and the plate was read using a tunable microplate microplate reader VERSAmax at 490 nm.
The IC50 values were obtained by four-parameter regression analysis using the software supplied with the microplate reader.

c-Met = c-Met (Homo sapiens (Human), UniProt P08581); assay: In vitro tyrosine kinase inhibition screening (ELISA); assay type: biochemical; details: 1 h
Description: (§1) 4. In Vitro Screening Test on Tyrosine Kinase Activity Inhibition Screening method: Enzyme-linked immunosorbent assay (ELISA) tyrosine kinase: Enzyme spectrum Time of action: 1 h

RET = RET (Homo sapiens (Human), UniProt P07949); assay: as above; assay type: biochemical; details: 1 h
Description: as §1

PDGFR-α = PDGFR-α (Homo sapiens (Human), UniProt P16234); assay: as above; assay type: biochemical; details: 1 h
Sequence of PDGFR-α (P16234 24-1089): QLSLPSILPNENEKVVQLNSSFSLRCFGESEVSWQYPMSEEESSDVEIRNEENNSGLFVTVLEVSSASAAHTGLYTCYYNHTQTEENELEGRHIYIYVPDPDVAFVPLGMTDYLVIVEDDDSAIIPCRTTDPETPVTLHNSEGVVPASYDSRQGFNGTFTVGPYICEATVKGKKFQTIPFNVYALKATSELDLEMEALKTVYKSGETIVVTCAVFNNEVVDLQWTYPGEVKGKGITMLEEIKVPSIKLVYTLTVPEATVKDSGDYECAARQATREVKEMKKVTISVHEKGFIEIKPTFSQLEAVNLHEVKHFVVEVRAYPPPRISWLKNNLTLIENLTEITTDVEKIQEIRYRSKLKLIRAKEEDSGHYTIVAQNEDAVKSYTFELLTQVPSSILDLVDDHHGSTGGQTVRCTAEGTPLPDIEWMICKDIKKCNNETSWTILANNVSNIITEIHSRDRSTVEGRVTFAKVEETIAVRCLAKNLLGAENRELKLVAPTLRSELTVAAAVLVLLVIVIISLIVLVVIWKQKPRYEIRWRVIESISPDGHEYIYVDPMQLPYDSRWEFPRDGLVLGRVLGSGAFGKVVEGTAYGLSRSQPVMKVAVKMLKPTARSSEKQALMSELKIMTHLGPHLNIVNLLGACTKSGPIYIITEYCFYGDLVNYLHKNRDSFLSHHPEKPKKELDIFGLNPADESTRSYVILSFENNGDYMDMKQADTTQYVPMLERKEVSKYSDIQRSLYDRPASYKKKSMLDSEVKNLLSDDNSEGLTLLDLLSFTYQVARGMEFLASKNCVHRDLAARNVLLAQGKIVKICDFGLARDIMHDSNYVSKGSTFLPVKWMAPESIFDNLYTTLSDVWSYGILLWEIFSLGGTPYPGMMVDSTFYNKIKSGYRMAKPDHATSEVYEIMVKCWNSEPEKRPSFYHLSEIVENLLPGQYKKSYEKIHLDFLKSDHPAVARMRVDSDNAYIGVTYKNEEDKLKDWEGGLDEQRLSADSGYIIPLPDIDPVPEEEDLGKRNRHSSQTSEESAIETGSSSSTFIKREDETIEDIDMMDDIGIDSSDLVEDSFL
Description: as §1

VEGFR-1 = VEGFR-1 (Homo sapiens (Human), UniProt P17948); assay: as above; assay type: biochemical; details: 1 h
Sequence of VEGFR-1 (P17948 27-1338, species assumed): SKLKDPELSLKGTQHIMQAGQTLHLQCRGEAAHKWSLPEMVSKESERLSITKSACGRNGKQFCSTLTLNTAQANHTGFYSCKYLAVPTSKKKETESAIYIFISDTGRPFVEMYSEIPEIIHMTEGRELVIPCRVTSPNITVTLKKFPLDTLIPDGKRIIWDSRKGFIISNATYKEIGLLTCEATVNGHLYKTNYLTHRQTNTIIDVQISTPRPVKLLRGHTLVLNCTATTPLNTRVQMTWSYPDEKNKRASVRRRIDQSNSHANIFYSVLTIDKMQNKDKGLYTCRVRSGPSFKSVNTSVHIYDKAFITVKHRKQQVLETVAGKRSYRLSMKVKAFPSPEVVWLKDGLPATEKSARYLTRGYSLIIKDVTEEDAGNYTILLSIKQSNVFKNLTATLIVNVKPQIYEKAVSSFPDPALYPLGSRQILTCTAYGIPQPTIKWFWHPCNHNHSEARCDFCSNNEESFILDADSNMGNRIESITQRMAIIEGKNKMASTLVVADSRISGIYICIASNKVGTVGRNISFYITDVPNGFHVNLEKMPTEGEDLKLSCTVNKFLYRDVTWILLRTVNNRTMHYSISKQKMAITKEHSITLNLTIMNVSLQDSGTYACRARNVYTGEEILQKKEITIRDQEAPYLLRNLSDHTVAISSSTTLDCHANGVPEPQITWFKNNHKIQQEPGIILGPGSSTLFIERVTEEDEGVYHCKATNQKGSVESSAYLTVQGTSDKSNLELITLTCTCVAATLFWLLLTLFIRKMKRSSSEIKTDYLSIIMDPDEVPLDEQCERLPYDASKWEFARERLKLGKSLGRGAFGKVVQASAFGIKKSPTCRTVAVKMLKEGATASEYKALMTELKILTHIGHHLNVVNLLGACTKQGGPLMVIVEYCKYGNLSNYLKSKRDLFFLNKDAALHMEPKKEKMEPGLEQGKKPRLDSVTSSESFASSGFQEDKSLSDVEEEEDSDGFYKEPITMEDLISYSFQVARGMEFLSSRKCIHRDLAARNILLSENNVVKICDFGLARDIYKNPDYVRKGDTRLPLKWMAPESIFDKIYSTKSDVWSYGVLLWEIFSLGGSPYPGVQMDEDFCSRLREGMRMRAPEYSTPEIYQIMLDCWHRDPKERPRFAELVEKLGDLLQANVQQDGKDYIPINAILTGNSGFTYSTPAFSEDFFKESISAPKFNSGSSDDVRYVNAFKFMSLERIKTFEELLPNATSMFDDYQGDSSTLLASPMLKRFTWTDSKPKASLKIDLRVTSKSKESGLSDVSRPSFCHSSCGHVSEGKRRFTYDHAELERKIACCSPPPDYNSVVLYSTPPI
Description: as §1

c-Src = c-Src (Homo sapiens (Human), UniProt P12931); assay: as above; assay type: biochemical; details: 1 h
Description: as §1

PDGFR-β = PDGFR-β (Homo sapiens (Human), UniProt P09619); assay: as above; assay type: biochemical; details: 1 h
Description: as §1

EGFR = EGFR (Homo sapiens (Human), UniProt P00533); assay: as above; assay type: biochemical; details: 1 h
Description: as §1

ErbB2 = ErbB2 (Homo sapiens (Human), UniProt P04626); assay: as above; assay type: biochemical; details: 1 h
Description: as §1

EPH-A2 = EPH-A2 (Homo sapiens (Human), UniProt P29317); assay: as above; assay type: biochemical; details: 1 h
Description: as §1

ErbB4 = ErbB4 (Homo sapiens (Human), UniProt Q15303); assay: as above; assay type: biochemical; details: 1 h
Sequence of ErbB4 (Q15303 26-1308, species assumed): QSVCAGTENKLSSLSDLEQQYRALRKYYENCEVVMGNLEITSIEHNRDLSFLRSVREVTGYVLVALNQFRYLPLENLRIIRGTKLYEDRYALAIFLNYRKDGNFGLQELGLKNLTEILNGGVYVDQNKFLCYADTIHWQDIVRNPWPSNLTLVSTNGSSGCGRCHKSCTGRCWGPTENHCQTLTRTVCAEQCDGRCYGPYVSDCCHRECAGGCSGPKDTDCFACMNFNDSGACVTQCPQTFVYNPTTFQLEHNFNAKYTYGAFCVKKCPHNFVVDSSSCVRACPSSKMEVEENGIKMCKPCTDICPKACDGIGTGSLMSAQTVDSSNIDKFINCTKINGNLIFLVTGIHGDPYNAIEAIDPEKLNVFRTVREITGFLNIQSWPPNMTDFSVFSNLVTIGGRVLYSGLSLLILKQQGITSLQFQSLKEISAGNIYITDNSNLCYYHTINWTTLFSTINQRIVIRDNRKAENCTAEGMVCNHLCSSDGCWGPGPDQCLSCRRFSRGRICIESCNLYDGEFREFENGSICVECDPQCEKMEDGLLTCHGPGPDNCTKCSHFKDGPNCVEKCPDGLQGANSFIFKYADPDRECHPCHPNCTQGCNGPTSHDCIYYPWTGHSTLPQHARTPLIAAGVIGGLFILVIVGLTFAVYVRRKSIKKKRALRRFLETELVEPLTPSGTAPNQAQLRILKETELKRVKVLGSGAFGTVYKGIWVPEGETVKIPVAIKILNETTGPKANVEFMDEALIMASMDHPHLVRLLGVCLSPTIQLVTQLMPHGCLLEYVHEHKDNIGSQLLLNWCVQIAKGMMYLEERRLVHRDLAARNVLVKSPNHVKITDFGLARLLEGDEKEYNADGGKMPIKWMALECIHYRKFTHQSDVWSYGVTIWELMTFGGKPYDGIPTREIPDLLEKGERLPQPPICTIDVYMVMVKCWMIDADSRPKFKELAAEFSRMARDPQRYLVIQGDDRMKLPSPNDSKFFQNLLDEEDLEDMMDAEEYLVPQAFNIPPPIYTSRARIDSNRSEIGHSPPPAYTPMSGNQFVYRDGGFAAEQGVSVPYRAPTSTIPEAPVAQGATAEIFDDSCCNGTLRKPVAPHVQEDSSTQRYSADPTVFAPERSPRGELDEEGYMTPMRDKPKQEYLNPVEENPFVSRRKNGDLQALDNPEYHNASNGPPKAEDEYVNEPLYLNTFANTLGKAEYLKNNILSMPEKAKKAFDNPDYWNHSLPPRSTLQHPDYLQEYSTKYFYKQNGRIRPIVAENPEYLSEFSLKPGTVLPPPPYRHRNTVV
Description: as §1

ABL = ABL (Homo sapiens (Human), UniProt P00519); assay: as above; assay type: biochemical; details: 1 h
Description: as §1

VEGFR-2 = VEGFR-2 (Homo sapiens (Human), UniProt P35968); assay: as above; assay type: biochemical; details: 1 h
Description: as §1

IGF1R = IGF1R (Homo sapiens (Human), UniProt P08069); assay: as above; assay type: biochemical; details: 1 h
Sequence of IGF1R (P08069 31-1367, species assumed): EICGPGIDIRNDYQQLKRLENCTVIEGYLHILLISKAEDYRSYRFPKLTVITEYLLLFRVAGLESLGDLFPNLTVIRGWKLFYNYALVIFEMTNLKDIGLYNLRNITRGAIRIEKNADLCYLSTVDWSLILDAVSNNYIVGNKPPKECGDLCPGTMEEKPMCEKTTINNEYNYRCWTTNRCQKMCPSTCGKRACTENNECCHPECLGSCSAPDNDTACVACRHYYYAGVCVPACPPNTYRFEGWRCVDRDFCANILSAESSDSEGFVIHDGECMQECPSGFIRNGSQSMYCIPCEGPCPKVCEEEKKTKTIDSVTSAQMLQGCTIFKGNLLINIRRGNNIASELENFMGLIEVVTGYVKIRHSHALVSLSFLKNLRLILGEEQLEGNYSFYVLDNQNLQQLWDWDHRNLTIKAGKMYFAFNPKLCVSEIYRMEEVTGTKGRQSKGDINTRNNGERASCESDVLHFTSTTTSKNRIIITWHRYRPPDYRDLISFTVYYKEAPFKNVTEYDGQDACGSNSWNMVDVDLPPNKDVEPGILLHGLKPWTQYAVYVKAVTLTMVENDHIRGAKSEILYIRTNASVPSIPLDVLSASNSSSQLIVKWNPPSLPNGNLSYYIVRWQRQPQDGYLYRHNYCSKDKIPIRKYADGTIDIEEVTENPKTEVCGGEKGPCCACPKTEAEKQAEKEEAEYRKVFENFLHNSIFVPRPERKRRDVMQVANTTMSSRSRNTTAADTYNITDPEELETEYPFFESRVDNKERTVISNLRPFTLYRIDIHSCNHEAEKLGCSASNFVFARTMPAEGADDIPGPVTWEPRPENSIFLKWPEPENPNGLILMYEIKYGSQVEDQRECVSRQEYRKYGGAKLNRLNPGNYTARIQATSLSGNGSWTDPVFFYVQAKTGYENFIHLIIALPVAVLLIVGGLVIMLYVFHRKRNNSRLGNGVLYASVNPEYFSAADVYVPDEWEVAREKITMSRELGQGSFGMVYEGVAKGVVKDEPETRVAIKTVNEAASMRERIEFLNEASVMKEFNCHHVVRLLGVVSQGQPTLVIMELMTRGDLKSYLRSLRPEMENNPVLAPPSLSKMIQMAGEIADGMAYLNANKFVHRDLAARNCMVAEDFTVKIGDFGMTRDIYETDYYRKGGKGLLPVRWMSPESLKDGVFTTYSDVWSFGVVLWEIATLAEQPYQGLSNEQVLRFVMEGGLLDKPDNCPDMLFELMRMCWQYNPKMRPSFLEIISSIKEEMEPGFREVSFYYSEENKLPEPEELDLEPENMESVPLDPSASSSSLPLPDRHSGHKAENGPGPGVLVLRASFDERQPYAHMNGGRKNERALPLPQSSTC
Description: as §1

Pharmacokinetics in rats = assay type: in vivo; details: male, rat, plasma, SD rats
Description: Seven SD rats, male, weighing 200-220 g, were randomly divided into two groups, 4 or 3 in each group. Compound S10 was administrated by intragastric or intravenous administration.
Rats were fasted for 12 h before test, and had access to water ad libitum. The rats were uniformly fed 2 h after administration of.
Blood sample time point and sample preparation:
intragastric administration: 0.25, 0.5, 1.0, 2.0, 4.0, 6.0, 8.0 and 24 h after administration;
intravenous administration: 5 min, 0.25, 0.5, 1.0, 2.0, 4.0, 6.0, 8.0 and 24 h after administration;
0.3 mL of venous blood was collected at the above time points via the rat eye vein venous plexus, placed in a heparinized test tube, and centrifuged at 11000 rpm for 5 min, and plasma was separated and frozen in a −20° C. refrigerator.
S10 in rat plasma was determined by LC/MS/MS.
The pharmacokinetic parameters after administration were calculated by a non-compartmental model of WinNonlin 6.3 software (Pharsight, USA).
The peak concentration Cmax and the peak time Tmax are measured values; The area under the curve of the drug-time AUC0-t value: calculated by the trapezoidal method; AUC0-∞=AUC0-t+Ct/ke, Ct is the blood concentration of drug at the last measurable time point;
ke is the elimination rate constant;
Elimination half-life t1/2=0.693/ke;
Clearance rate CL=D/AUC0-∞;
Volume of steady state distribution Vss=CL×MRT;

SMILES: CNC(=O)c1cccc2cc(Oc3ccnc(NC(=O)c4ccc(N5C[C@@H](C)N[C@@H](C)C5)cc4)c3)ccc12 [Compound S10]
- pIC50 [1]: > 8.00
- inhibition at 0.1 µM ([1]; 1 h, read-out: Inhibition ratio (%) @ 0.1 μM): 94%
- Inhibition ratio (%) c-Met (c-Met; 10 nM): 11.2%
- Inhibition ratio (%) c-Met (c-Met; 1000 nM): 29.5%
- Inhibition ratio (%) RET (RET; 10 nM): 13.2%
- Inhibition ratio (%) RET (RET; 1000 nM): 90.5%
- Inhibition ratio (%) PDGFR-α (PDGFR-α; 10 nM): 50.2%
- Inhibition ratio (%) PDGFR-α (PDGFR-α; 1000 nM): 87.1%
- Inhibition ratio (%) VEGFR-1 (VEGFR-1; 10 nM): 75.6%
- Inhibition ratio (%) VEGFR-1 (VEGFR-1; 1000 nM): 100.0%
- Inhibition ratio (%) c-Src (c-Src; 10 nM): 20.3%
- Inhibition ratio (%) c-Src (c-Src; 1000 nM): 43.6%
- Inhibition ratio (%) PDGFR-β (PDGFR-β; 10 nM): 56.4%
- Inhibition ratio (%) PDGFR-β (PDGFR-β; 1000 nM): 87.8%
- Inhibition ratio (%) EGFR (EGFR; 10 nM): 9.6%
- Inhibition ratio (%) EGFR (EGFR; 1000 nM): 11.3%
- Inhibition ratio (%) ErbB2 (ErbB2; 10 nM): 17.4%
- Inhibition ratio (%) ErbB2 (ErbB2; 1000 nM): 22.2%
- Inhibition ratio (%) EPH-A2 (EPH-A2; 10 nM): 4.2%
- Inhibition ratio (%) EPH-A2 (EPH-A2; 1000 nM): 7.7%
- Inhibition ratio (%) ErbB4 (ErbB4; 10 nM): 2.0%
- Inhibition ratio (%) ErbB4 (ErbB4; 1000 nM): 7.0%
- Inhibition ratio (%) ABL (ABL; 10 nM): 17.5%
- Inhibition ratio (%) ABL (ABL; 1000 nM): 28.8%
- Inhibition ratio (%) VEGFR-2 (VEGFR-2; 10 nM): 90.4%
- Inhibition ratio (%) VEGFR-2 (VEGFR-2; 1000 nM): 98.7%
- Inhibition ratio (%) IGF1R (IGF1R; 10 nM): 23.5%
- Inhibition ratio (%) IGF1R (IGF1R; 1000 nM): 11.0%
- bioavailability (Pharmacokinetics in rats; oral, intragastric 10 mg/kg vs intravenous 5 mg/kg): 79.6%
- AUC(0-t) (Pharmacokinetics in rats; po, intragastric 10 mg/kg): 3430 ng·h/mL
- Cmax (Pharmacokinetics in rats; po, intragastric 10 mg/kg): 399 ng/mL
- Tmax (Pharmacokinetics in rats; po, intragastric 10 mg/kg): 4.5 h
- half-life (Pharmacokinetics in rats; po, intragastric 10 mg/kg): 3.55 h
- clearance (Pharmacokinetics in rats; intravenous 5 mg/kg): 40.8 mL/min/kg
- half-life (Pharmacokinetics in rats; intravenous 5 mg/kg): 3.69 h
- Vd (Pharmacokinetics in rats; intravenous 5 mg/kg, read-out: Vss): 11.3 L/kg
